This series in a line: in vitro. The note with it: human, hela cells, % viability.

Molecules are shown by their SMILES.

As usually defined, the viability is a read-out of living cells in per cent, often relative to untreated cells. `CC(C)OC(=O)CCNC(=O)c1cccc(S(=O)(=O)N2CCCC2)c1` [CBK306090]: the viability at 28.5 h, 10 µM amounted to 91.1%. On to `O=C(CN1CCN(CC(=O)NC2CC2)CC1)Nc1cc(Cl)ccc1Cl` [CBK306091], for which the viability at 28.5 h, 10 µM worked out at 84.8%. `Cc1nnc(SCC(=O)Nc2ccc(CN3CCOCC3)cc2)n1C` [CBK306092]: the viability at 28.5 h, 10 µM was 102%. Take `CS(=O)(=O)N1CCCc2cc(-c3csc(N4CCCC4)n3)ccc21` [CBK306093]: the viability at 28.5 h, 10 µM worked out at 114%. `Cc1nn(C)c2ncc(S(=O)(=O)Nc3cc(C(N)=O)ccc3Cl)cc12` [CBK306104]: the viability at 28.5 h, 10 µM worked out at 70%.

As for `CCN1CCC(NCc2ccc(OCC(N)=O)cc2)CC1` [CBK306106], the viability at 28.5 h, 10 µM was determined as 85.9%. Turning to `CCc1nc2n(n1)CC(NCc1nc(C)ccc1O)CC2` (stereo not shown) [CBK306107], the viability at 28.5 h, 10 µM was determined as 106%.

With `CC(C(=O)Nc1ccc(S(N)(=O)=O)cc1)N1CCCc2ccccc21` (stereo not shown) [CBK306108], the viability at 28.5 h, 10 µM came out at 116%. For `C#CCNC(=O)N(C)C1CCN(c2ncnc3ccccc23)CC1` [CBK306109], the viability at 28.5 h, 10 µM was determined as 97.6%. For `CCNC(=O)CN1CCN(c2ccc(C#N)cc2C(F)(F)F)CC1` [CBK306112], the viability at 28.5 h, 10 µM was determined as 85%.

Consider `O=c1c2cccnc2nc(SCCO)n1CC1CCCO1` (stereo not shown) [CBK306113], for which the viability at 28.5 h, 10 µM was determined as 80.3%.

Turning to `CC(=O)NCCC(=O)Nc1cc(C)ccc1C` [CBK306115], the viability at 28.5 h, 10 µM stood at 96.6%. In the case of `N#Cc1ccsc1NC(=O)CN1CCC(CNc2ccccn2)C1` (stereo not shown) [CBK306117], the viability at 28.5 h, 10 µM is 105%. Turning to `Cc1ccc(-c2nn(CCC#N)cc2C(=O)N2CCCCC2)cc1` [CBK306119], the viability at 28.5 h, 10 µM amounted to 89.6%. With `CC(C)NC(=O)Nc1ccc(C(=O)N(CC#N)C2CC2)cc1` [CBK306120], the viability at 28.5 h, 10 µM came out at 90.5%. As to `Cc1cccn2c(=O)cc(CN3CCC(CNc4ccccn4)C3)nc12` (stereo not shown) [CBK306123], the viability at 28.5 h, 10 µM turned out to be 103%. As for `COc1ccnc(N2CCN(C(=O)c3cnn(C)c3)CC2)n1` [CBK306125], the viability at 28.5 h, 10 µM stood at 90.7%. In the case of `Cc1cc(NC(=O)CN2CCC(CNc3ncccc3C#N)C2)on1` (stereo not shown) [CBK306127], the viability at 28.5 h, 10 µM is 87.8%. `Cc1ccnc(NCC2CCN(CC(=O)NC3(C#N)CCCC3)C2)c1` (stereo not shown) [CBK306128]: the viability at 28.5 h, 10 µM worked out at 85.8%. Turning to `Cc1ccc(Cc2cnc(NC(=O)C3CCOCC3)s2)cc1F` [CBK306130], the viability at 28.5 h, 10 µM turned out to be 77.5%. Take `Cc1cc(NC(=O)CN(C)C(=O)c2cnc(Cl)c(Cl)c2)no1` [CBK306132]: the viability at 28.5 h, 10 µM stood at 101%.

Regarding `O=S1(=O)CCC(c2nc(-c3ccc(Br)o3)no2)C1` (stereo not shown) [CBK306134], the viability at 28.5 h, 10 µM worked out at 77.8%. With `CC(=O)Nc1ccc(NCc2ncc(C(C)(C)C)o2)c(Cl)c1` [CBK306135], the viability at 28.5 h, 10 µM was 98.6%. For `Cc1cc(NC(=O)CN2CCC(CSc3ccccc3)C2)no1` (stereo not shown) [CBK306136], the viability at 28.5 h, 10 µM stood at 92.4%. Still for that read-out and setting: the figure for `CCc1cnc(CN(C)C2CCN(CC(=O)NCc3ccco3)C2)o1` (stereo not shown) [CBK306137] is 94.8%; for `C#CCNS(=O)(=O)c1cccc(C(=O)N2CCOC(CC(=O)OC)C2)c1` (stereo not shown) [CBK306138] it is 90.8%; for `CCNC(=O)CN1CCN(C(=O)C(C)(C)c2cccc(C#N)c2)CC1` [CBK306141] it is 96.4%. As for `Cc1ccc(OCC(=O)NCC(c2cccs2)N2CCOCC2)cc1C` (stereo not shown) [CBK306143], the viability at 28.5 h, 10 µM was 93.3%. On the same count and under the same terms, then `CC(C)C(=O)Nc1sc2c(c1C(=O)NCc1cccnc1)CCC2` [CBK306144], with 80.3%. Consider `CCn1cc(CN2CCCN(C(=O)c3cc(C)on3)CC2)cn1` [CBK306145], for which the viability at 28.5 h, 10 µM was 88.1%. In the case of `CC1CCCCN1C(=O)Cn1cnc2c(Cl)cc(Cl)cc2c1=O` (stereo not shown) [CBK306149], the viability at 28.5 h, 10 µM is 90.3%.

Regarding `CC(C)N(Cc1cccnc1)C(=O)Cn1c(C2CC2)nc2ccccc21` [CBK306156], the viability at 28.5 h, 10 µM turned out to be 104%. Regarding `CCNS(=O)(=O)c1ccc2c(c1)N(Cc1csnn1)CC2` [CBK306161], the viability at 28.5 h, 10 µM turned out to be 74.3%. In the case of `Cc1nn(CCS(C)(=O)=O)c(C)c1CN1CCOC(c2ccccc2)C1` (stereo not shown) [CBK306162], the viability at 28.5 h, 10 µM is 80.4%. Same read-out and setting: then `O=C(NCC1(CCO)CC1)c1c[nH]nc1-c1cc2ccccc2o1` [CBK306163], with 94.5%; and `O=C(Cn1cnc(-c2nccs2)n1)N1CCCCCC1` [CBK306165], with 97.5%. As to `CCCCOc1ccc(C(=O)N(C)c2cnn(C)c2)c(O)c1` [CBK306167], the viability at 28.5 h, 10 µM was 89.5%. As for `CCCc1ccc(S(=O)(=O)N2CCOC(c3cnn(CC)c3)C2)cc1` (stereo not shown) [CBK306169], the viability at 28.5 h, 10 µM stood at 83.4%. For `CN1CCCc2ccc(S(=O)(=O)NCCc3cn4ccccc4n3)cc21` [CBK306170], the viability at 28.5 h, 10 µM turned out to be 82.8%.

As to `CCn1cc(C2CN(S(=O)(=O)c3c(C)c(C)cc(C)c3C)CCO2)cn1` (stereo not shown) [CBK306171], the viability at 28.5 h, 10 µM amounted to 63.8%.

As for `CNS(=O)(=O)c1cccc2c1CCN(C(=O)NC1CCOC1)C2` (stereo not shown) [CBK306172], the viability at 28.5 h, 10 µM was determined as 106%.

Turning to `O=C(NC1CCCN(CC(F)(F)F)C1=O)c1cnc(-c2ccncc2)s1` (stereo not shown) [CBK306175], the viability at 28.5 h, 10 µM amounted to 82.6%.

In the case of `CCOc1cc(NC2CCN(C(=O)C(C)CC3CCCC3)CC2)ncn1` (stereo not shown) [CBK306176], the viability at 28.5 h, 10 µM was found to be 85.3%. With `CS(=O)(=O)c1ccc(-n2nnnc2CN2CCC3(CCCC3)C2)cc1` [CBK306178], the viability at 28.5 h, 10 µM is 89.4%. For the compound `CCC1(C)CCCN(Cc2nnnn2-c2ccc(S(C)(=O)=O)cc2)C1` (stereo not shown) [CBK306180], the viability at 28.5 h, 10 µM stood at 113%. With `CC1(C)CCCN(Cc2nnnn2-c2ccc(S(C)(=O)=O)cc2)C1` [CBK306181], the viability at 28.5 h, 10 µM was 91.7%. With `CS(=O)(=O)c1ccc(-n2nnnc2CN2CCC3(CCCCC3)C2)cc1` [CBK306183], the viability at 28.5 h, 10 µM came to 91.1%. In the case of `CCN(CC)S(=O)(=O)c1ccc(CNC(=O)Cc2ccc(Cl)cc2)cc1` [CBK306188], the viability at 28.5 h, 10 µM was determined as 105%.

`N#CCCn1cc(C(=O)N2CCOCC2)c(-c2ccc(F)cc2)n1` [CBK306189]: the viability at 28.5 h, 10 µM amounted to 95.5%. As for `O=C(O)c1cc(S(=O)(=O)NCc2ccco2)ccc1Br` [CBK306193], the viability at 28.5 h, 10 µM was 83.7%.

In the case of `N#CCCn1cc(C(=O)N2CCCCC2)c(-c2cccs2)n1` [CBK306194], the viability at 28.5 h, 10 µM worked out at 86.5%. In the case of `N#CCCn1cc(C(=O)N2CCOCC2)c(-c2cccs2)n1` [CBK306195], the viability at 28.5 h, 10 µM was determined as 110%. Still for that read-out and setting: the figure for `Cc1cc(C(=O)CSc2nnc(CN3CCCC3)o2)c(C)n1C1CC1` [CBK306199] is 84%. For the compound `CCOCCn1c(N2CC(C)CC(C)C2)nc2c1c(=O)[nH]c(=O)n2C` (stereo not shown) [CBK306200], the viability at 28.5 h, 10 µM came out at 83.6%. As for `N#CCCn1cc(C(=O)N2CCCCC2)c(-c2cccc(Br)c2)n1` [CBK306202], the viability at 28.5 h, 10 µM worked out at 89.4%.

`N#CCCn1cc(C(N)=O)c(-c2cc3ccccc3o2)n1` [CBK306204]: the viability at 28.5 h, 10 µM was found to be 92.9%. In the case of `CC1CCCCC12NC(=O)N(Cc1nnc(-c3cccs3)o1)C2=O` (stereo not shown) [CBK306205], the viability at 28.5 h, 10 µM amounted to 82.9%. For `N#CCCn1cc(C(=O)N2CCCCC2)c(-c2cc3ccccc3o2)n1` [CBK306206], the viability at 28.5 h, 10 µM was found to be 95.1%. In the case of `N#CCCn1cc(C(=O)N2CCOCC2)c(-c2cccc(Cl)c2)n1` [CBK306208], the viability at 28.5 h, 10 µM was 88.2%. In the case of `CCOc1ncccc1C(=O)Nc1cnc2c(cnn2C(C)C)c1` [CBK306210], the viability at 28.5 h, 10 µM amounted to 102%. For the compound `CCCCN1C(=O)C(O)(c2c(C)nn(CCC#N)c2N)c2ccccc21` (stereo not shown) [CBK306211], the viability at 28.5 h, 10 µM (bulk resorufin, single well) amounted to 110%.

For `Cc1cc(CNC(=O)CCc2c(C)nc3nc(N)nn3c2C)ccc1F` [CBK306212], the viability at 28.5 h, 10 µM came to 91.9%.

On to `CCN1CCOC(CNc2nc(-c3ccncc3)nc3c2CCC3)C1` (stereo not shown) [CBK306215], for which the viability at 28.5 h, 10 µM worked out at 88.4%. `CCOc1ccc(CN(C)C(=O)Nc2cc(C)on2)cc1` [CBK306216]: the viability at 28.5 h, 10 µM was 101%. On the same count and under the same terms, the figure for `CC(=O)Nc1ccc(CCNC(=O)NCc2nc(C3CC3)no2)cc1` [CBK306221] is 96.1%. For the compound `CC1CCCC(C)N1C(=O)Cn1cnc2c(Cl)cc(Cl)cc2c1=O` (stereo not shown) [CBK306222], the viability at 28.5 h, 10 µM turned out to be 85.7%. Consider `CC(C)(C)OC(=O)N1CCN(Cc2nnc(Cc3ccccc3)o2)CC1` [CBK306223], for which the viability at 28.5 h, 10 µM is 94.1%. The same measure, in the same setting: the figure for `CC(C)NC(=O)N(C)C1CCN(c2ncnc3ccccc23)CC1` [CBK306224] is 92.4%. Turning to `COCCN(CCOC)c1ncc(C#N)cc1Cl` [CBK306227], the viability at 28.5 h, 10 µM was 92.6%. Consider `CCC(C)c1nnc(C2(c3ccc(Br)cc3)CCOCC2)o1` (stereo not shown) [CBK306229], for which the viability at 28.5 h, 10 µM was 99.7%. On to `CC(C)c1nnc(C2(c3ccc(Br)cc3)CCOCC2)o1` [CBK306230], for which the viability at 28.5 h, 10 µM is 86.4%. Take `Cc1cc(NC(=O)C(C)SCc2cccc(C(F)(F)F)c2)no1` (stereo not shown) [CBK306233]: the viability at 28.5 h, 10 µM amounted to 95.5%.

`C#CCN(C1CCc2ccccc21)S(=O)(=O)c1cc(C(=O)NC)n(C)c1` (stereo not shown) [CBK306235]: the viability at 28.5 h, 10 µM worked out at 91.8%. Regarding `Cn1cc(Nc2nc(-c3ccc4c(c3)CCCN4S(C)(=O)=O)cs2)cn1` [CBK306236], the viability at 28.5 h, 10 µM came to 85.7%. As to `CCCn1cc(NC(=O)C2(c3ccccc3)CCC2)ccc1=O` [CBK306237], the viability at 28.5 h, 10 µM stood at 95.4%.

With `Cc1cc(C)n(C2CN(CC(=O)NCc3ccccn3)C2)n1` [CBK306238], the viability at 28.5 h, 10 µM is 88.3%. In the case of `CCC1CCCCN1C(=O)Cc1c(C)nc(-c2cccnc2)[nH]c1=O` (stereo not shown) [CBK306240], the viability at 28.5 h, 10 µM was determined as 91.6%. With `O=C(Cn1ccc(=O)[nH]c1=O)NCC1(Sc2ccccc2)CC1` [CBK306242], the viability at 28.5 h, 10 µM was found to be 110%. Consider `COCC1CCN(c2c(F)cc(C#N)cc2F)CC1` [CBK306244], for which the viability at 28.5 h, 10 µM is 104%. For the compound `Cc1ccccc1-c1cc(C(=O)N(C)C)c2cnn(C(C)C)c2n1` [CBK306245], the viability at 28.5 h, 10 µM was 98.6%. `Cc1nnnn1-c1cc(NC(=O)NCCN2CCOCC2)ccc1F` [CBK306246]: the viability at 28.5 h, 10 µM came out at 89.2%. `CC(=O)Nc1cccc(C(C)NC(=O)N(C)C2CCc3ccccc32)c1` (stereo not shown) [CBK306251]: the viability at 28.5 h, 10 µM amounted to 102%.

The values are drawn from paper PMC12040169 (PLOS Biology, 2025).
